{
  "source": "patent US10004718B2",
  "about": "“Erythropoietin expression promoter” (TOHOKU UNIVERSITY, priority 2012, dated 2018)",
  "key": {"Hep3B cells": {"tested_on": "Hep3B cells", "assay": "Cytotoxicity, cell survival rate of Hep3B cells (Cell Counting Kit-8)", "assay_type": "cell-based, human", "experimental": "The Hep3B cells were seeded at 1×10^4 cells/well to a 24-well cell culture plate and then cultured under normal oxygen (20% O2) for 24 hours. […] After further culture under normal oxygen (20% O2) for 24 hours, the number of live cells was measured using Cell Counting Kit-8 (manufactured by Dojindo Laboratories) to calculate the survival rate of the cells. Hep3B cells cultured in the absence of the compound (DMSO added [1%]) (“DMSO” of FIG. 9) and Hep3B cells cultured in the presence of HIF activators (DMOG [10 μM] and ciclopirox[10 μM]) (“DMOG” and “Ciclopirox”, respectively, of FIG. 9) were used as controls."}, "[1]": {"assay": "Liver function in mice (plasma GOT, GPT, erythropoietin)", "assay_type": "in vivo, mouse", "details": "oral, 7 consecutive days", "experimental": "Compound #4 (10 mg/100 μl of DMSO) (10 μl) and compound #4 (20 mg/100 μl of DMSO) (15 μl) were mixed with 190 μl and 185 μl, respectively, of corn oil to prepare low-concentration (5 μg/ml) compound #4 and high-concentration (15 μg/ml) compound #4 mixed solutions (200 μl each). Each mixed solution (200 μl) was orally administered to each mouse (C57BL/6N 8 W, male, 21-25 g) between 15:00 to 18:00 every day using a sonde. This administration was carried out for 7 consecutive days (n=4). Mice orally given DMSO were used as controls (n=4).\n24 hours after the final administration, each mouse was cervically dislocated, and 500 μl of blood was collected from the heart. Then, an anticoagulant (10 μl of heparin) was added thereto, and the resulting blood was centrifuged (12000 rpm×20 min, 4° C.) to isolate plasma. The plasma concentrations of indexes for liver functions (GOT [glutamic oxaloacetic transaminase] and GPT [glutamic pyruvic transaminase]) were measured using Transaminase CII-Test Wako (manufactured by Wako Pure Chemical Industries, Ltd.) to examine the effect of improving liver functions. Also, the plasma concentration ([…]) of erythropoietin was measured using a kit (Quantikine Mouse/Rat Epo Immunoassay, manufactured by R&D Systems, Inc.)."}, "[2]": {"assay": "Erythrocyte production in mice (Hct value and hemoglobin, i-STAT)", "assay_type": "in vivo, mouse", "details": "1 mg/200 μl of CMC oral, 7 consecutive days, n=3, mean±standard deviation", "experimental": "Compound #4 (1 mg) was mixed with 200 μl of CMC (carboxymethylcellulose). This compound #4 mixed solution (1 mg/200 μl of CMC) was orally administered to each mouse (C57BL/6N 8 W, male, 21-25 g) between 15:00 to 18:00 every day using a sonde. This administration was carried out for 7 consecutive days (n=3). Mice orally given CMC were used as controls (n=3).\n24 hours after the final administration, each mouse was cervically dislocated, and 500 μl of blood was collected from the heart. Then, an anticoagulant (10 μl of heparin) was added thereto, and the Hct value and the hemoglobin concentration were measured using i-STAT (manufactured by Fuso Pharmaceutical Industries, Ltd.)."}, "[3]": {"tested_on": "MCA (middle cerebral artery) occlusion mouse models", "assay": "Cerebral ischemic injury, MCA occlusion mouse model (TTC staining)", "assay_type": "in vivo", "details": "40 mg/kg intraperitoneal 4 hours before ischemia, 24 hours after reperfusion, vs DMSO, n=1", "experimental": "Two types of compounds (compounds #4 and 35) (40 mg/kg of mouse body weight) were each intraperitoneally administered to a mouse 4 hours before ischemia (n=1). A vehicle (DMSO) was administered to a control (n=1). Anesthesia was induced in each mouse with 4% halothane and oxygen and maintained by the intraperitoneal administration of ketamine (40 mg/kg) and xylazine (4 mg/kg) at 30-minute intervals. After the induction of systemic anesthesia, bifurcation of the common carotid artery was exposed under a microscope. A 6-0 nylon thread having a silicon-coated tip was inserted from the internal carotid artery toward the central side so that its tip reached the anterior communicating artery. The common carotid artery was further ligated to block blood flow into the middle cerebral artery. After the ischemic burden for 30 minutes, the nylon thread was removed so that the ligated common carotid artery was released to induce reperfusion.\n24 hours after the reperfusion, each mouse was cervically dislocated and then decapitated to excise the brain. Five coronal sections of the cerebrum having a thickness of 2 mm were prepared from the boundary between the cerebrum and the cerebellum. The coronal sections of the cerebrum were stained with TCC through a reaction at 37° C. for 20 minutes with a TTC solution diluted to 1.5% with PBS. […]"}, "[4]": {"tested_on": "human kidney-derived cell line HK-2", "assay": "Renal protective effect: cisplatin cytotoxicity to HK-2 cells", "assay_type": "cell-based", "details": "for HK-2 cell death by cisplatin: cisplatin 30 μM", "experimental": "The HK-2 cells were seeded at 5×10^3 cells/well to a 96-well cell culture plate and then cultured overnight. Cisplatin and compound #4 were mixed at 30 μM and each concentration (30, 10, 3, 1, 0.3, 0.1, 0.03, 0.01, and 0.003 μM), respectively, into DMEM/F12 common medium. After further culture for 24 hours, conversion to formazan dye by mitochondrial dehydrogenase in live cells was detected by the measurement of absorbance at OD […] using a kit (Cell counting kit-8, manufactured by Dojindo Laboratories) to analyze the ratio of live cells. HK-2 cells cultured in the absence of cisplatin (“Cisplatin-” of FIG. 14) and HK-2 cells cultured in the presence of cisplatin (30 μM) and in the absence of the compound #4 (“Cisplatin+” of FIG. 14) were used as controls.\nThe cells were cultured in advance for 1 hour with the compound #4 of the present invention having a concentration of 3 μM and then analyzed according to the method described in Example 12."}, "ISN-1e cells": {"tested_on": "ISN-1e cells", "assay": "ATP production in islet of Langerhans-derived ISN-1e cells (insulin secretion)", "assay_type": "cell-based, rat", "details": "compound 0.03 to 10 μM, 3 hours", "experimental": "The ISN-1e cells were seeded at 2×10^5 cells/well to a 96-well cell culture plate and then cultured overnight. Compound #4 was mixed at each concentration (10, 3, 1, 0.3, 0.1, and 0.03 μM) into RPMI11640 common medium 2. After further culture for 3 hours, the concentration of ATP produced in the medium was measured using ATP Assay Reagent “of Cells” (manufactured by Toyo B-Net Co., Ltd.) and GloMa 96 Microplate Luminometer (manufactured by Promega K.K.). ISN-1e cells cultured in the absence of the compound (DMSO added [1%]) (“control” of FIG. 16) and ISN-1e cells cultured in the presence of an HIF activator (FG-4592 [10, 3, 1, 0.3, and 0.1 μM]) were used as controls."}},
  "data": [
    {"smiles": "O=C(CC(C(=O)O)c1c[nH]c2ccccc12)c1ccc(F)cc1", "note": "(centres unmarked) [compound #4, 4-(4-Fluorophenyl)-2-(1H-indol-3-yl)-4-oxo-butanoic acid]", "values": [
      {"measurement": "cell survival rate compared with cells cultured in the absence of the compound (DMSO)", "setting": "Hep3B cells; 0.5 μM compound, 24 hours", "value": "almost the same"},
      {"measurement": "cell survival rate compared with cells cultured using 0.5 μM compound", "setting": "Hep3B cells; 100 μM compound, 24 hours", "value": "approximately 70%"},
      {"measurement": "cell survival rate compared with cells cultured using 0.5 μM compound", "setting": "Hep3B cells; 1, 5, or 10 μM compound, 24 hours", "value": "rarely different"},
      {"measurement": "cytotoxicity", "setting": "Hep3B cells; concentration ranging from 0 to 10 μM", "value": "hardly exhibit cytotoxicity"},
      {"measurement": "erythropoietin concentration in the mouse plasma", "setting": "[1]; low concentration (5 μg/ml) and high concentration (15 μg/ml)", "value": "elevate the erythropoietin concentration"},
      {"measurement": "GOT concentration in the plasma", "setting": "[1]; mice", "value": "lower"},
      {"measurement": "GPT concentration in the plasma", "setting": "[1]; mice", "value": "lower"},
      {"measurement": "Hct value", "setting": "[2]", "value": "47.7±0.816", "unit": "% PCV"},
      {"measurement": "hemoglobin concentration in the mouse blood", "setting": "[2]", "value": "16.2 ± 0.286", "unit": "g/dL"},
      {"measurement": "volume of the cerebral infarction site", "setting": "[3]", "value": "decreased"},
      {"measurement": "HK-2 cell death by cisplatin", "setting": "[4]; compound at a concentration around 30 μM", "value": "efficiently suppress cell death"},
      {"measurement": "HK-2 cell death by cisplatin", "setting": "[4]; compound at least at a concentration of 1 to 300 μM, 24 hours", "value": "significantly suppressed"},
      {"measurement": "HK-2 cell death by cisplatin with preincubation compared with no preincubation", "setting": "[4]; preincubation 1 hour with 3 μM compound", "value": "further suppressed"},
      {"measurement": "ATP concentration in the ISN-1e cells relative to the control", "setting": "ISN-1e cells", "value": "two or more times relative to the control"}
    ]}
  ]
}
